Laboratory results published in US20260274891A1, “¿ OPIOID RECEPTOR AGONIST AND USE THEREOF” (CHENGDU AODA BIOTECHNOLOGY CO., LTD., priority 2023, published 2026).
Where two headings read alike, the source gives them in different places. Square brackets hold non-standard residues; d marks the D form. Side chains are listed from the residue outwards. Peptide text beside a SMILES is read from it. * marks the point of attachment. X3 = NCCCC[C@@H](NC(=O)[C@@H](CCCCN)NC(=O)C1(N)CCN(*)CC1)C(=O)O; X21 = NCCCC[C@H](NC(=O)[C@H](CCCCN)NC(=O)C1(N)CCN(*)CC1)C(N)=O; X28 = NCCCC[C@H](NC(=O)[C@H](CCCCN)NC(=O)C1(N)CCN(*)CC1)C(=O)O; X12 = CCOc1ccc(C[C@@H](NC(=O)[C@H](N)Cc2ccccc2)C(=O)*)cc1; Piperidinyl(4-NH2,4-CONH2) = NC(=O)C1(N)CCN(*)CC1; X10 = NCCCC[C@@H](NC(=O)C1(N)CCN(*)CC1)C(=O)O; X1 = NCCCC[C@@H](NC(=O)C1(N)CCN(*)CC1)C(N)=O; X6 = NCCCC[C@H](NC(=O)C1(N)CCN(*)CC1)C(N)=O; dAla(cPr) = N[C@H](CC1CC1)C(=O)O; Trifluoroethyl = FC(F)(F)C*; Api = NC1(C(=O)O)CCNCC1; iPr = CC(C)*

Target: T1, human κ opioid receptor (OPRK1) (Homo sapiens, UniProt P41145)
T1 construct: expressed in transfected cells; host or cells: CHO-K1
T1 sequence (P41145 whole entry): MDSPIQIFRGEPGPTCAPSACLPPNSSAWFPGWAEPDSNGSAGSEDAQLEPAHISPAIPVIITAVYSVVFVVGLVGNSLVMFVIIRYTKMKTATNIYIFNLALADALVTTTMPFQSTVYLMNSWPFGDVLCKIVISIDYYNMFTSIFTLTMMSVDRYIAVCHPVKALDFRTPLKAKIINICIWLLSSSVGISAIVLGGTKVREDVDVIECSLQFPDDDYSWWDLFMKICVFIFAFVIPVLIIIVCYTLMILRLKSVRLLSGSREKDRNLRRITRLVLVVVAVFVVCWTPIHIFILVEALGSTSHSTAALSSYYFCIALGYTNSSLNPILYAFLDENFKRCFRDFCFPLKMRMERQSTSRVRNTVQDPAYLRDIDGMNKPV
Assay: Determination of activities of κ receptor agonists: inhibition of forskolin-stimulated cAMP release (HTRF) in stably transfected CHO-K1 cells
Assay type: cell-based
Conditions: for Relative Activity %: relative to Difelikefalin = 100.0
Excerpt: Gi-coupled human κ opioid receptor (OPRK1), upon stimulation with its specific opioid receptor agonists, can inhibit the intracellular adenylate cyclase pathway, and decrease cAMP levels. Forskolin can stimulate cAMP release in cell lines highly expressing opioid receptors. By stimulating cell lines stably transfected with opioid receptors, the inhibitory effect of a test compound on forskolin-stimulated cAMP release can be measured to determine the activity of the compound. The relative light units (RLU) from the cells after stimulation with different doses were measured via the homogeneous time-resolved fluorescence technique (HTRF), and the EC50 value of the agonist was subsequently calculated. This activity determination method is a currently commonly used method for determining the activities of opioid receptor agonists at home and abroad.
A CHO-K1 cell line stably expressing opioid receptors was used. Stably transfected cells were stimulated with various concentrations of agonists (under the stimulation of a certain concentration of forskolin). The relative light units from the cells after stimulation with different doses were measured, from which the EC50 value of the agonist was subsequently obtained by calculation.

SMILES	EC50 [nM]	Relative Activity % [%]	EC50 (CHO-K1 cell line stably expressing opioid receptors, forskolin-stimulated cAMP, HTRF, read-out: EC50) [nM]
CC(C)C[C@@H](NC(=O)[C@@H](Cc1ccc(OCC(F)(F)F)cc1)NC(=O)[C@H](N)Cc1ccccc1)C(=O)N[C@H](CCCCN)C(=O)N1CCC(N)(C(=O)N[C@H](CCCCN)C(=O)O)CC1 [Compound 96, D-Phe-D-Tyr(CH2CF3)-D-Leu-D-Lys-4-aminopiperidine-4-carboxamide-D-Lys-OH] (H-[dF][dY](Trifluoroethyl)[dL][dK]-X10; N-terminus assumed)	0.0494	1229.1	–
CCOc1ccc(C[C@@H](NC(=O)[C@H](N)Cc2ccccc2)C(=O)N[C@H](CC(C)C)C(=O)N[C@H](CCCCN)C(=O)N2CCC(N)(C(=O)NCC(=O)NCC(=O)NCC(=O)N[C@H](CCCCN)C(N)=O)CC2)cc1 [Compound 57, D-Phe-D-Tyr(Et)-D-Leu-D-Lys-4-aminopiperidine-4-carboxamide-Gly-Gly-Gly-D-Lys-NH2] (H-[Api]([dK-dL-X12])GGG[dK]-NH2; N-terminus assumed)	0.0514	1181.3	–
CCOc1ccc(C[C@@H](NC(=O)[C@H](N)Cc2ccccc2)C(=O)N[C@H](CC(C)C)C(=O)N[C@H](CCCCN)C(=O)N2CCC(N)(C(=O)N[C@H](CCCCN)C(=O)N[C@H](CCCCN)C(=O)N[C@H](CCCCN)C(=O)N[C@H](CCCCN)C(=O)N[C@H](CCCCN)C(N)=O)CC2)cc1 [Compound 23, D-Phe-D-Tyr(Et)-D-Leu-D-Lys-4-aminopiperidine-4-carboxamide-D-Lys-D-Lys-D-Lys-D-Lys -D-Lys-NH2] (H-[Api]([dK-dL-X12])[dK][dK][dK][dK][dK]-NH2; N-terminus assumed)	0.0554	1096.0	–
CCOc1ccc(C[C@@H](NC(=O)[C@H](N)Cc2ccccc2)C(=O)N[C@H](CC2CC2)C(=O)N[C@H](CCCCN)C(=O)N2CCC(N)(C(N)=O)CC2)cc1 [Compound 67, D-Phe-D-Tyr(Et)-D-cyclopropylalanine-D-Lys-4-aminopiperidine-4-carboxamide-NH2] (H-[dF][dY](Et)[dAla(cPr)][dK]-{Piperidinyl(4-NH2,4-CONH2)}; N-terminus assumed)	–	477.7	0.127
CC(C)C[C@@H](NC(=O)[C@@H](Cc1ccc(OC(C)C)cc1)NC(=O)[C@H](N)Cc1ccccc1)C(=O)N[C@H](CCCCN)C(=O)N1CCC(N)(C(=O)N[C@H](CCCCN)C(=O)O)CC1 [Compound 102, D-Phe-D-Tyr(Ipr)-D-Leu-D-Lys-4-aminopiperidine-4-carboxamide-D-Lys-OH] (H-[dF][dY](iPr)[dL][dK]-X10; N-terminus assumed)	0.073	831.8	–
CCOc1ccc(C[C@@H](NC(=O)[C@H](N)Cc2ccccc2)C(=O)N[C@H](CC(C)C)C(=O)N[C@H](CCCCN)C(=O)N2CCC(N)(C(=O)NCC(=O)NCC(=O)NCC(=O)NCC(=O)NCC(=O)N[C@H](CCCCN)C(=O)O)CC2)cc1 [Compound 66, D-Phe-D-Tyr(Et)-D-Leu-D-Lys-4-aminopiperidine-4-carboxamide-Gly-Gly-Gly-Gly-Gly-D-Lys-OH] (H-[Api]([dK-dL-X12])GGGGG[dK]-OH; N-terminus assumed)	0.0895	678.4	–
CCOc1ccc(C[C@@H](NC(=O)[C@H](N)Cc2ccccc2)C(=O)N[C@H](CC(C)C)C(=O)N[C@H](CCCCN)C(=O)N2CCC(N)(C(=O)NCC(=O)NCC(=O)NCC(=O)NCC(=O)N[C@H](CCCCN)C(N)=O)CC2)cc1 [Compound 61, D-Phe-D-Tyr(Et)-D-Leu-D-Lys-4-aminopiperidine-4-carboxamide-Gly-Gly-Gly-Gly-D-Lys-NH2] (H-[Api]([dK-dL-X12])GGGG[dK]-NH2; N-terminus assumed)	0.0706	860.1	–
CCc1ccc(C[C@@H](NC(=O)[C@H](N)Cc2ccccc2)C(=O)N[C@H](CC(C)C)C(=O)N[C@H](CCCCN)C(=O)N2CCC(N)(C(=O)N[C@H](CCCCN)C(=O)O)CC2)cc1 [Compound 134, D-Phe-D-Phe(4-Et)-D-Leu-D-Lys-4-aminopiperidine-4-carboxamide-D-Lys-OH]	0.133	457.6	–
CCOc1ccc(C[C@@H](NC(=O)[C@H](N)Cc2ccccc2)C(=O)N[C@H](CC(C)C)C(=O)N[C@H](CCCCN)C(=O)N2CCC(N)(C(=O)N[C@H](CCCCN)C(=O)N[C@H](CCCCN)C(=O)O)CC2)cc1 [Compound 18, D-Phe-D-Tyr(Et)-D-Leu-D-Lys-4-aminopiperidine-4-carboxamide-D-Lys-D-Lys-OH] (H-[dF][dY](Et)[dL][dK]-X3; N-terminus assumed)	0.046	1320.0	–
CC(C)C[C@@H](NC(=O)[C@@H](Cc1ccc(Br)cc1)NC(=O)[C@H](N)Cc1ccccc1)C(=O)N[C@H](CCCCN)C(=O)N1CCC(N)(C(=O)O)CC1 [Compound 116, D-Phe-D-Phe(4-Br)-D-Leu-D-Lys-4-aminopiperidine-4-carboxamide-OH]	0.136	448.1	–
CCOc1ccc(C[C@@H](NC(=O)[C@H](N)Cc2ccccc2)C(=O)N[C@H](CC(C)C)C(=O)N[C@H](CCCCN)C(=O)N2CCC(N)(C(=O)NCC(=O)NCC(=O)NCC(=O)NCC(=O)N[C@@H](CCCCN)C(N)=O)CC2)cc1 [Compound 59, D-Phe-D-Tyr(Et)-D-Leu-D-Lys-4-aminopiperidine-4-carboxamide-Gly-Gly-Gly-Gly-Lys-NH2] (H-[Api]([dK-dL-X12])GGGGK-NH2; N-terminus assumed)	0.0694	874.9	–
CC(C)C[C@@H](NC(=O)[C@@H](Cc1ccc(OCC(F)(F)F)cc1)NC(=O)[C@H](N)Cc1ccccc1)C(=O)N[C@H](CCCCN)C(=O)N1CCC(N)(C(=O)N[C@H](CCCCN)C(N)=O)CC1 [Compound 95, D-Phe-D-Tyr(CH2CF3)-D-Leu-D-Lys-4-aminopiperidine-4-carboxamide-D-Lys-NH2] (H-[dF][dY](Trifluoroethyl)[dL][dK]-X1; N-terminus assumed)	0.0505	1202.4	–
CCOc1ccc(C[C@@H](NC(=O)[C@H](N)Cc2ccccc2)C(=O)N[C@H](CC(C)C)C(=O)N[C@H](CCCCN)C(=O)N2CCC(N)(C(=O)N[C@@H](CCCCN)C(N)=O)CC2)cc1 [Compound 3, D-Phe-D-Tyr(Et)-D-Leu-D-Lys-4-aminopiperidine-4-carboxamide-Lys-NH2] (H-[dF][dY](Et)[dL][dK]-X6; N-terminus assumed)	0.0394	1541.1	–
CCOc1ccc(C[C@@H](NC(=O)[C@H](N)Cc2ccccc2)C(=O)N[C@H](CC(C)C)C(=O)N[C@H](CCCCN)C(=O)N2CCC(N)(C(=O)N[C@@H](CCCCN)C(=O)N[C@@H](CCCCN)C(=O)O)CC2)cc1 [Compound 6, D-Phe-D-Tyr(Et)-D-Leu-D-Lys-4-aminopiperidine-4-carboxamide-Lys-Lys-OH] (H-[dF][dY](Et)[dL][dK]-X28; N-terminus assumed)	0.0402	1510.4	–
CCOc1ccc(C[C@@H](NC(=O)[C@H](N)Cc2ccccc2)C(=O)N[C@H](CC(C)C)C(=O)N[C@H](CCCCN)C(=O)N2CCC(N)(C(=O)N[C@@H](CCCCN)C(=O)N[C@@H](CCCCN)C(N)=O)CC2)cc1 [Compound 5, D-Phe-D-Tyr(Et)-D-Leu-D-Lys-4-aminopiperidine-4-carboxamide-Lys-Lys-NH2] (H-[dF][dY](Et)[dL][dK]-X21; N-terminus assumed)	0.041	1481.0	–
CCOc1ccc(C[C@@H](NC(=O)[C@H](N)Cc2ccccc2)C(=O)N[C@H](CC(C)C)C(=O)N[C@H](CCCCN)C(=O)N2CCC(N)(C(=O)N[C@@H](CCCCN)C(=O)N[C@@H](CCCCN)C(=O)N[C@@H](CCCCN)C(=O)N[C@@H](CCCCN)C(=O)N[C@@H](CCCCN)C(N)=O)CC2)cc1 [Compound 11, D-Phe-D-Tyr(Et)-D-Leu-D-Lys-4-aminopiperidine-4-carboxamide-Lys-Lys-Lys-Lys-Lys-NH2] (H-[Api]([dK-dL-X12])KKKKK-NH2; N-terminus assumed)	0.0534	1137.1	–
Cc1ccc(C[C@@H](NC(=O)[C@H](N)Cc2ccccc2)C(=O)N[C@H](CC(C)C)C(=O)N[C@H](CCCCN)C(=O)N2CCC(N)(C(=O)N[C@@H](CCCCN)C(=O)O)CC2)cc1 [Compound 128, D-Phe-D-Phe(4-Me)-D-Leu-D-Lys-4-aminopiperidine-4-carboxamide-Lys-OH]	0.16	380.2	–
CCOc1ccc(C[C@@H](NC(=O)[C@H](N)Cc2ccccc2)C(=O)N[C@H](CC(C)C)C(=O)N[C@H](CCCCN)C(=O)N2CCC(N)(C(=O)NCC(=O)NCC(=O)NCC(=O)NCC(=O)NCC(=O)N[C@H](CCCCN)C(N)=O)CC2)cc1 [Compound 65, D-Phe-D-Tyr(Et)-D-Leu-D-Lys-4-aminopiperidine-4-carboxamide-Gly-Gly-Gly-Gly-Gly-D-Lys-NH2] (H-[Api]([dK-dL-X12])GGGGG[dK]-NH2; N-terminus assumed)	0.0884	686.9	–
CCOc1ccc(C[C@@H](NC(=O)[C@H](N)Cc2ccccc2)C(=O)N[C@H](CC(C)C)C(=O)N[C@H](CCCCN)C(=O)N2CCC(N)(C(=O)N[C@@H](CCCCN)C(=O)N[C@@H](CCCCN)C(=O)N[C@@H](CCCCN)C(=O)N[C@@H](CCCCN)C(=O)O)CC2)cc1 [Compound 10, D-Phe-D-Tyr(Et)-D-Leu-D-Lys-4-aminopiperidine-4-carboxamide-Lys-Lys-Lys-Lys-OH] (H-[Api]([dK-dL-X12])KKKK-OH; N-terminus assumed)	0.0463	1311.4	–
